Target: T1, human PDE4B1 (Homo sapiens, UniProt Q07343)
T1 construct: host or cells: Sf9 cells
Test: cAMP HTRF assay to determine the activity of hPDE4B1
Format: biochemical
Details: inhibition of PDE4B at a test concentration of 1 μM
Method in brief: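 […], using HTRF quantitation of residual cAMP after 1 mM IBMX stop and 60 min detection. Enzyme was Sf9-expressed human PDE4B1 incubated 30 min at room temperature with 40 nM final cAMP at pH 7.8.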

T1 sequence (Q07343 whole entry): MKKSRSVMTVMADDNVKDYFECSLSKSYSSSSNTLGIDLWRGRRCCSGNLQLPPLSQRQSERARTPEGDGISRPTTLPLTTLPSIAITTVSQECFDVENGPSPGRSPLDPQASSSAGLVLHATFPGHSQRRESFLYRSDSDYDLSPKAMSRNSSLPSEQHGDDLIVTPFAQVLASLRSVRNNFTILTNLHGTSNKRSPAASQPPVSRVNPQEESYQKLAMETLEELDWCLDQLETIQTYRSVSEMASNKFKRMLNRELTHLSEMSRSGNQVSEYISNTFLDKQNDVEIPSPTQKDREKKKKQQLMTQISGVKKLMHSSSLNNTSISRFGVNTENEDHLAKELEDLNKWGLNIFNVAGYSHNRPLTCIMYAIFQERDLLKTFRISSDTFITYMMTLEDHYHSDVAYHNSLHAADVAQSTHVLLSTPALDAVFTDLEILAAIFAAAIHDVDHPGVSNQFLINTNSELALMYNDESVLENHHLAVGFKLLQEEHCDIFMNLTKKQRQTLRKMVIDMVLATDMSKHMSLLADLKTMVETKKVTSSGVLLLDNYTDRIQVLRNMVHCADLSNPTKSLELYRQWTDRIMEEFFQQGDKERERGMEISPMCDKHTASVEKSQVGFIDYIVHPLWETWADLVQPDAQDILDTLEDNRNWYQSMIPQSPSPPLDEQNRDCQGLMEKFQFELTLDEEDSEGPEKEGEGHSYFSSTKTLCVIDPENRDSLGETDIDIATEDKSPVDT

SMILES	inhibition at 1 µM [%]	Inhibition in % (1 µM) [%]
C[S+]([O-])c1cn(-c2ncc(-c3ccccc3F)cn2)c2cc(C(=O)N3CCC4(COC4)C3)ccc12 (stereo not drawn) [Example 370, (1-(5-(2-Fluorophenyl)pyrimidin-2-yl)-3-(methylsulfinyl)-1H-indol-6-yl)(2-oxa-6-azaspiro[3.4]octan-6-yl)methanone]	23	–
CCC1CCCCN1C(=O)c1ccc2c([S+](C)[O-])cn(-c3ncc(-c4ccccc4F)cn3)c2c1 (stereo not drawn) [Example 371, (2-Ehylpiperidin-1-yl)(1-(5-(2-fluorophenyl)pyrimidin-2-yl)-3-(methylsulfinyl)-1H-indol-6-yl)methanone]	32	–
CCN1CCN(C(=O)c2ccc3c([S+](C)[O-])cn(-c4ncc(-c5ccccc5F)cn4)c3c2)CC1 (stereo not drawn) [Example 375, (4-Ethylpiperazin-1-yl)(1-(5-(2-fluorophenyl)pyrimidin-2-yl)-3-(methylsulfinyl)-1H-indol-6-yl)methanone]	66	–
CN1CCCN(C(=O)c2ccc3c([S+](C)[O-])cn(-c4ncc(-c5ccccc5F)cn4)c3c2)CC1 (stereo not drawn) [Example 376, (1-(5-(2-Fluorophenyl)pyrimidin-2-yl)-3-(methylsulfinyl)-1H-indol-6-yl)(4-methyl-1,4-diazepan-1-yl)methanone]	31	–
C[S+]([O-])c1cn(-c2ncc(-c3ccccc3F)cn2)c2cc(C(=O)N3CCCCC3CO)ccc12 (stereo not drawn) [Example 379, (1-(5-(2-Fluorophenyl)pyrimidin-2-yl)-3-(methylsulfinyl)-1H-indol-6-yl)(2-(hydroxymethyl)piperidin-1-yl)methanone]	50	–
COC1CCN(C(=O)c2ccc3c([S+](C)[O-])cn(-c4ncc(-c5ccccc5F)cn4)c3c2)CC1 (stereo not drawn) [Example 381, (1-(5-(2-Fluorophenyl)pyrimidin-2-yl)-3-(methylsulfinyl)-1H-indol-6-yl)(4-methoxypiperidin-1-yl)methanone]	–	12
C[S+]([O-])c1cn(-c2ncc(-c3ccccc3F)cn2)c2cc(C(=O)N3CCOC(C)(C)C3)ccc12 (stereo not drawn) [Example 383, (2,2-Dimethylmorpholino)(1-(5-(2-fluorophenyl)pyrimidin-2-yl)-3-(methylsulfinyl)-1H-indol-6-yl)methanone]	68	–
C[S+]([O-])c1cn(-c2ncc(-c3ccccc3F)cn2)c2cc(C(=O)N3CCC4(CC3)COC4)ccc12 (stereo not drawn) [Example 384, (1-(5-(2-Fluorophenyl)pyrimidin-2-yl)-3-(methylsulfinyl)-1H-indol-6-yl)(2-oxa-7-azaspiro[3.5]nonan-7-yl)methanone]	3	–

The remaining lines, values ahead:

inhibition at 1 µM [%]	Inhibition in % (1 µM) [%]	SMILES
87	–	CN(CCC(=O)O)C(=O)c1ccc2c([S+](C)[O-])cn(-c3ncc(-c4ccccc4F)cn3)c2c1 (stereo not drawn) [Example 369, 3-(1-(5-(2-Fluorophenyl)pyrimidin-2-yl)-N-methyl-3-(methylsulfinyl)-1H-indole-6-carboxamido)propanoic acid]
47	–	CN(C)[C@@H]1CCN(C(=O)c2ccc3c([S+](C)[O-])cn(-c4ncc(-c5ccccc5F)cn4)c3c2)C1 (stereo partly drawn) [Example 374, ((R)-3-(Dimethylamino)pyrrolidin-1-yl)(1-(5-(2-fluorophenyl)-pyrimidin-2-yl)-3-(methylsulfinyl)-1H-indol-6-yl)methanone]
9	–	C[S+]([O-])c1cn(-c2ncc(-c3ccccc3F)cn2)c2cc(C(=O)N3CCC(CO)CC3)ccc12 (stereo not drawn) [Example 380, (1-(5-(2-Fluorophenyl)pyrimidin-2-yl)-3-(methylsulfinyl)-1H-indol-6-yl)(4-(hydroxymethyl)piperidin-1-yl)methanone]
0	–	CN(C(=O)c1ccc2c([S+](C)[O-])cn(-c3ncc(-c4ccccc4F)cn3)c2c1)C1CCOCC1 (stereo not drawn) [Example 382, 1-(5-(2-Fluorophenyl)pyrimidin-2-yl)-N-methyl-3-(methylsulfinyl)-N-(tetrahydro-2H-pyran-4-yl)-1H-indole-6-carboxamide]
